This passage reports MIC and Activity results from ChEMBL document CHEMBL5046281, “N-Aryl Mercaptopropionamides as Broad-Spectrum Inhibitors of Metallo-β-Lactamases” (J Med Chem, 2022).

Assay [1] relates to Enterobacter cloacae. Briefly: Antibacterial activity against GIM-1 producing Enterobacter cloacae T2218 clinical isolates assessed as inhibition of bacterial growth by microdilution method. It is filed as functional. For orientation: Broth dilution looks for growth in wells or tubes with falling amounts of substance.
For assay [2], the system named is Escherichia coli. Briefly: Antibacterial activity against NDM-7 producing Escherichia coli T2239 clinical isolates assessed as inhibition of bacterial growth by microdilution method. It is filed as functional.
The subject of assay [3] is Klebsiella pneumoniae. Briefly: Antibacterial activity against NDM-1 producing Klebsiella pneumoniae T2301 clinical isolates assessed as inhibition of bacterial growth by microdilution method. The assay is classed as functional.
Assay [4] concerns Enterobacter cloacae. Put plainly: Antibacterial activity against NDM-1 producing Enterobacter cloacae T2311 clinical isolates assessed as inhibition of bacterial growth by microdilution method. The assay is classed as functional.
Assay [5] deals with Serratia marcescens. Briefly: Antibacterial activity against NDM-1 producing Serratia marcescens T2352 clinical isolates assessed as inhibition of bacterial growth by microdilution method. It is filed as functional.
Assay [6] has as its system Escherichia coli. Put plainly: Antibacterial activity against NDM-5 producing Escherichia coli T2351 clinical isolates assessed as inhibition of bacterial growth by microdilution method.
The test system of assay [7] is Pseudomonas aeruginosa. Put plainly: Antibacterial activity against VIM-1 producing Pseudomonas aeruginosa T2357 clinical isolates assessed as inhibition of bacterial growth by microdilution method. It is filed as functional.
Assay [8] concerns Enterobacter cloacae. Briefly: Antibacterial activity against VIM-1 producing Enterobacter cloacae T2353 clinical isolates assessed as inhibition of bacterial growth by microdilution method. The assay is classed as functional.
The test system of assay [9] is Pseudomonas aeruginosa. Briefly: Antibacterial activity against IMP-1 producing Pseudomonas aeruginosa T2325 clinical isolates assessed as inhibition of bacterial growth by microdilution method.
For assay [10], the system named is Acinetobacter baumannii. Put plainly: Antibacterial activity against OXA-23 producing Acinetobacter baumannii T2434 clinical isolates assessed as inhibition of bacterial growth by microdilution method. It is filed as functional.
For assay [11], the system named is Escherichia coli. Briefly: Antibacterial activity against KPC-2 producing Escherichia coli T2435 clinical isolates assessed as inhibition of bacterial growth by microdilution method. The assay is classed as functional.
The subject of assay [12] is Klebsiella pneumoniae. Briefly: Antibacterial activity against imipenem-resistant NDM-1-producing Klebsiella pneumoniae T2301 infected in Galleria mellonella larvae assessed as survival rate at 0.12 ug injected via proleg measured after 3 days by Kaplan-Meier method. The assay is classed as functional. As to conditions: dose 0.12 µg; time 3 day.

Molecules are shown by their SMILES. Values after ≈ are worked out from the molar mass of the structure shown.

On to `C[C@@H](O)[C@H]1C(=O)N2C(C(=O)O)=C(SCCNC=N)C[C@H]12` [IMIPENEM ANHYDROUS], for which the MIC in assay [1] was 2 µg/mL (≈ 6.68 µM); in [2], 32 µg/mL (≈ 107 µM); in assay [3], 16 µg/mL (≈ 53.4 µM); in [4] it was 8 µg/mL (≈ 26.7 µM); in assay [5], 256 µg/mL (≈ 855 µM); in assay [6], 8 µg/mL (≈ 26.7 µM). Besides, the MIC is 256 µg/mL (≈ 855 µM) in [7]; 4 µg/mL (≈ 13.4 µM) in [8]; 16 µg/mL (≈ 53.4 µM) in [9]; 32 µg/mL (≈ 107 µM) in assay [10]; 4 µg/mL (≈ 13.4 µM) in assay [11]. The Activity entry in assay [12] is reported as “<=25%”.

As usually defined, the MIC is the lowest concentration that inhibits growth of the organism.
